EP0563814A2, “Carbonic acid esters of 2-amino-7-(1,3-dihydroxy-2-propoxymethyl)purines, their preparation and their use as antiviral agents” (HOECHST AKTIENGESELLSCHAFT, priority 1992, dated 1993)
Where two headings read alike, the source gives them in different places.

Legend:
[1] = tested on: Herpes simplex 1 Virus (HSV-1); experiment: Activity against systemic HSV-1 infection in the NMRI mouse, oral treatment; assay type: in vivo, NMRI-Mäuse; conditions: i.p. infection, observation two weeks
Description: Wirkung gegen systemische Herpes simplex 1 Virus (HSV-1) Infektion: NMRI-Mäuse, spezifisch pathogenfrei, im Gewicht von 15-18 g wurden intraperitoneal mit HSV-1 infiziert und anschließend mit den erfindungsgemäßen Verbindungen oral therapiert. Die Behandlung erfolgte erstmals 3 Stunden nach der Infektion und wurde zweimal täglich über 4 Tage fortgesetzt. Der Behandlungserfolg wurde anhand des Krankheitsverlaufes und der Überlebensrate gegenüber der unbehandelten Infektionskontrolle bestimmt. Letztere erhielt anstelle der erfindungsgemäßen Verbindungen physiologische Kochsalzlösung appliziert. Die Beobachtungszeit betrug zwei Wochen. Tabelle 1 zeigt die Ergebnisse dieser Untersuchung. Tabelle 1

[2] = Oral bioavailability in the mouse; assay type: in vivo, Maus; conditions: for AUC(0-inf): analyte Formel 1', read-out: AUD (0-->oo) (converted)
Description: Folgende Bioverfügbarkeiten der Verbindungen der Formel 1' wurden bei Mäusen nach oraler Gabe der erfindungsgemäßen Verbindungen ermittelt: […]

SMILES | mittlere Überlebenszeit (Tage) ([1]; 9 x 10 µmol/kg) | Überlebende/ Gruppengröße ([1]; 9 x 10 µmol/kg) | mittlere Überlebenszeit (Tage) ([1]; 9 x 30 µmol/kg) | Überlebende/ Gruppengröße ([1]; 9 x 30 µmol/kg) | mittlere Überlebenszeit (Tage) ([1]; 9 x 100 µmol/kg) | Überlebende/ Gruppengröße ([1]; 9 x 100 µmol/kg) | Bioverfügbarkeit ([2]; i.v., 25 mg/kg, availability of Formel 1') [%] | AUC(0-inf) ([2]; in vivo, iv, 25 mg/kg) [ng·h/mL] | AUC(0-inf) ([2]; in vivo, po, 100 mg/kg) [ng·h/mL] | bioavailability ([2]; in vivo, po, 100 mg/kg, availability of Formel 1', read-out: Bioverfügbarkeit) [%]
CC(=O)OCC(COC(C)=O)OCn1cnc2nc(N)ncc21 [Beispiel 1, 2-Amino-7-[(1,3-bis-acetoxy-2-propoxy)methyl]purin] | > 14 | 5/5 | > 14 | 5/5 | > 14 | 5/5 |  |  |  | 
Nc1ncc2c(ncn2COC(CO)CO)n1 [Formel 1', 2-Amino-7-[(1,3-dihydroxy-2-propoxy)methyl]purin, reference compound] | 10.5 ± 0.7 | 3/5 | 9.5 ± 1.3 | 1/5 |  | 5/5 | 100 | 223 | 154 | 17.2
CCCC(=O)OCC(COC(=O)CCC)OCn1cnc2nc(N)ncc21 [Beispiel 2, 2-Amino-7-[(1,3-bis-butyryloxy-2-propoxy)methyl]purin] |  |  |  | 5/5 |  | 5/5 |  |  |  | 
CCC(=O)OCC(COC(=O)CC)OCn1cnc2nc(N)ncc21 [Beispiel 3, 2-Amino-7-[(1,3-bis-propionyloxy-2-propoxy)methyl]purin] |  |  |  | 5/5 |  | 5/5 |  |  |  | 
